Test results reported in PMC10799085, “A miniaturized mode-of-action profiling platform enables high throughput characterization of the molecular and cellular dynamics of EZH2 inhibition” (Scientific Reports, 2024).
Where “and” joins values, the source holds several entries; their conditions need not be identical. Equal values may be shown once. Read-outs that look alike come from different tables or passages of the source. Each block holds one molecule with its values, some of them ahead of it.

How the values were obtained:
in vitro = in vitro ADME; details: human, Caco-2, pH 7.2, 2 µM, 2 h, 37 °C; for Papp A→B at 2 h, 2 µM: apical to basolateral, read-out: PK Caco-2 Flux Papp A-B (mean); for Papp B→A at 2 h, 2 µM: basolateral to apical, read-out: PK Caco-2 Flux Papp B-A (mean)
Protocol: Cells were kept at 37 °C in a humidified 5% CO2 atmosphere. Before the permeation assay was run, the culture medium was replaced by an FCS-free HEPES carbonate transport buffer (pH 7.2). For assessment of monolayer integrity, the transepithelial electrical resistance was measured. Test compounds were pre-dissolved in DMSO and added either to the apical or basolateral compartment at a final concentration of 2 µM. Before and after 2 h incubation at 37 °C, samples were taken from both compartments. Analysis of compound content was conducted after precipitation with methanol by LC/MS/MS analysis. Reference compounds were analyzed in parallel as assay control. Permeability (Papp) was calculated in the apical to basolateral (A → B) and basolateral to apical (B → A) directions. The efflux ratio basolateral (B) to apical (A) was calculated by dividing Papp B–A by Papp A–B.

[1] = test system: H3K27me3 mark in MDA-MB-231 cells; assay: High content analysis (HCA) of cellular H3K27me3 mark, washout format; format: cell-based; details: for AUC (a.u.): HCA H3K27 methylation washout pIC50 AUC over all incubation/washout times; for IC50: Homo sapiens
Protocol: In the low- and high-signal control wells, test compounds were replaced by 10 µM of EZH2 inhibitor (equal to unlabeled probe from ePCA and kPCA) or DMSO, respectively. […] After fixation, the cells were washed with PBS and incubated with 1% BSA blocking solution at RT for 1 h. Blocking solution was discarded, primary monoclonal antibody rabbit Tri-methyl-histone H3K27 (C36B11, Cell signaling) diluted 1:200 in blocking solution was added and incubated overnight at 4 °C. […] Afterwards, cells were washed three times with PBS and incubated at 4 °C until measuring. Fluorescence signals were captured by an Opera Phenix™ High Content Screening (HCA) system (Perkin Elmer) by 10× magnification. […] Microscopy images were initially visualized and preprocessed with MetaXpress High Content Image Acquisition & Analysis Software (Molecular Devices) as previously described. Raw data import, normalization, quality control and fitting curves for IC50 determination of tested compounds were done with Genedata Screener® for high-content screening. Wells with no recognizable signals were masked and the average intensity of the trimethylation signal was normalized to the DMSO control (0%).

KARPAS-422 cells = assay: Cellular proliferation assay (AlamarBlue, 144 h); format: cell-based; details: Homo sapiens; KARPAS-422 cells, 6-day (144 h), AlamarBlue; read-out: KARPAS (6-day) Anti-proliferation IC50
Protocol: Cell viability was determined by means of the AlamarBlue® reagent (Thermo Fisher Scientific) following instructions from the manufacturer. […] Anti-proliferative IC50s were calculated by fitting the normalized AlamarBlue® fluorescence values to a 4-parameter logistic equation using the Electronic Notebook (ELN) software from IDBS.

PRC2/EZH2+/+ [2] = target: T1, PRC2/EZH2+/+ (Homo sapiens, UniProt Q15910); assay: Kinetic titration (association then dissociation) of the fluorescent probe, TR-FRET; format: binding; details: for Kinetic koff / Kinetic kon: listed as fluorescent EZH2 probe
T1 construct: purchased Active Motif

PRC2/EZH2Y641N [3] = target: T2, PRC2/EZH2Y641N (Homo sapiens, UniProt Q15910, Y641N); assay: as above; format: binding; details: EZH2 Y641N, 25 °C; for Kinetic koff / Kinetic kon: listed as fluorescent EZH2 probe
T2 construct: Synthetic cDNA encoding N-terminal 6His-tagged full length EZH2^Y641N; 6His (N); made in house; host or cells: Sf9 insect cells (baculovirus co-infection)

PRC2/EZH2Y641N [4] = target: T2, PRC2/EZH2Y641N; assay: Equilibrium titration of the fluorescent probe, TR-FRET, -/+ H3K27me3 activator peptide; format: binding; details: EZH2 Y641N, 25 °C
PRC2/EZH2+/+ [5] = target: T1, PRC2/EZH2+/+; assay: as above; format: binding
EZH2 = test system: EZH2; parameters: method as in Konze et al. [41]; details: 40-fold higher enzyme concentration; ref Konze et al. [41]; cited from earlier work

T2 sequence (Q15910 whole entry Y641N): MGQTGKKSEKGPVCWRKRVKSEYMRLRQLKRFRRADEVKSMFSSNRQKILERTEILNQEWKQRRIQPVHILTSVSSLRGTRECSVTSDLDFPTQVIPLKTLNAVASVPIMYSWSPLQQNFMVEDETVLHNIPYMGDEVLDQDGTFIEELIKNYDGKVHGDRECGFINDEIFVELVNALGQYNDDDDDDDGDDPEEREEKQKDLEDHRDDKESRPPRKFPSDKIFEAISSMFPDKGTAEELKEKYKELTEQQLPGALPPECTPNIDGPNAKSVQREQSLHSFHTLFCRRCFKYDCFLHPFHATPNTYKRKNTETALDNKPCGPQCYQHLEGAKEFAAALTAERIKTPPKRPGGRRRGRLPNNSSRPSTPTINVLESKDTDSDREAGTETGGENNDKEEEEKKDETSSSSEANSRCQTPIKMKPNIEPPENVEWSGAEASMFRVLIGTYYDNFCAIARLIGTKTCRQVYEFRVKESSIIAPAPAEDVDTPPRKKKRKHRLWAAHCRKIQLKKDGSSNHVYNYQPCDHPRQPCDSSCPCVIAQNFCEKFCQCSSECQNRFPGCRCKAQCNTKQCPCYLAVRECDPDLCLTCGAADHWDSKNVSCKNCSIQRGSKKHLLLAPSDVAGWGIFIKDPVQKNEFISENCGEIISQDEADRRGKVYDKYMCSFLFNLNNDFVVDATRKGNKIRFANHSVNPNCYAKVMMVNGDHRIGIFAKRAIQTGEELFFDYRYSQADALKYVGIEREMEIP
T2 sequence (O75530 whole entry partner): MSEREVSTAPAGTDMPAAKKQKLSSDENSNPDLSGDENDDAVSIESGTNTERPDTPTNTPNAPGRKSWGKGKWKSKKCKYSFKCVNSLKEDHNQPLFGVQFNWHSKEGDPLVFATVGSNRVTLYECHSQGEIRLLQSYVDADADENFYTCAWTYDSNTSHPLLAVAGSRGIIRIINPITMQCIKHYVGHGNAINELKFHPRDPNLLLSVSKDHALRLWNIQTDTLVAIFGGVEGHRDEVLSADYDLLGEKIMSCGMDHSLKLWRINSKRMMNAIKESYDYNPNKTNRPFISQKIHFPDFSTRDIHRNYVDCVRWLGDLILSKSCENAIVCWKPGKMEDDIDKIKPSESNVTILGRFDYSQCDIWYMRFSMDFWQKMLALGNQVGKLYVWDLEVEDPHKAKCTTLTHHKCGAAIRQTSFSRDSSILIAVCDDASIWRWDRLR
T2 sequence (Q15022 whole entry partner): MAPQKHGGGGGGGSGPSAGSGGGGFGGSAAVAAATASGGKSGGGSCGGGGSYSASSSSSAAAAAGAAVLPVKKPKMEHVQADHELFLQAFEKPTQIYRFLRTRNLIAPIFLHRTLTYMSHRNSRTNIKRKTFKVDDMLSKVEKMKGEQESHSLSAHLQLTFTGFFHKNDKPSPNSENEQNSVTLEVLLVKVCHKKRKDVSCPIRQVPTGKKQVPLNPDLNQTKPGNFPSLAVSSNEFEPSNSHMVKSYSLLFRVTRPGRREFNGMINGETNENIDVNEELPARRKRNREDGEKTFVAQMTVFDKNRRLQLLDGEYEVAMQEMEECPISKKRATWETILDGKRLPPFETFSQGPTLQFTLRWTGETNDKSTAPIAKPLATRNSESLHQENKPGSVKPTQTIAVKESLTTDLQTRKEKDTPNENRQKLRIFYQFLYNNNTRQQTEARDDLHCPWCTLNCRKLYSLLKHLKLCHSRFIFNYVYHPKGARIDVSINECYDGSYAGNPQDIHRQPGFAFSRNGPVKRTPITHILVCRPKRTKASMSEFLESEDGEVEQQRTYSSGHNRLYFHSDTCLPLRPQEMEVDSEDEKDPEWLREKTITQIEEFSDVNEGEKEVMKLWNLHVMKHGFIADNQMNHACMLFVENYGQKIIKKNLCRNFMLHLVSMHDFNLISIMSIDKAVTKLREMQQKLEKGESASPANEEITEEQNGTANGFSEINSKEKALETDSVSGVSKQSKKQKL
T2 sequence (Q09028 whole entry partner): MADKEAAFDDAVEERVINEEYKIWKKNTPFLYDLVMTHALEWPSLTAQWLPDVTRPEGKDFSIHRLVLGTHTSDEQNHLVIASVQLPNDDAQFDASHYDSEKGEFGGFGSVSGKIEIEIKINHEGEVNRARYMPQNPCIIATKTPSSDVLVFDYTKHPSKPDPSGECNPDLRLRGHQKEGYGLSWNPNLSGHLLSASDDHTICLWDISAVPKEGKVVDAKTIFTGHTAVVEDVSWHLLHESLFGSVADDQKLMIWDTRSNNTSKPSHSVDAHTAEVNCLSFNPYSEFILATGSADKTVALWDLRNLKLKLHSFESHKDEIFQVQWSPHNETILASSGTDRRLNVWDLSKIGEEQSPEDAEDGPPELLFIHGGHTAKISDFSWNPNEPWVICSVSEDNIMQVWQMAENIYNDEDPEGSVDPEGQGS
T2 sequence (Q6ZN18 whole entry partner): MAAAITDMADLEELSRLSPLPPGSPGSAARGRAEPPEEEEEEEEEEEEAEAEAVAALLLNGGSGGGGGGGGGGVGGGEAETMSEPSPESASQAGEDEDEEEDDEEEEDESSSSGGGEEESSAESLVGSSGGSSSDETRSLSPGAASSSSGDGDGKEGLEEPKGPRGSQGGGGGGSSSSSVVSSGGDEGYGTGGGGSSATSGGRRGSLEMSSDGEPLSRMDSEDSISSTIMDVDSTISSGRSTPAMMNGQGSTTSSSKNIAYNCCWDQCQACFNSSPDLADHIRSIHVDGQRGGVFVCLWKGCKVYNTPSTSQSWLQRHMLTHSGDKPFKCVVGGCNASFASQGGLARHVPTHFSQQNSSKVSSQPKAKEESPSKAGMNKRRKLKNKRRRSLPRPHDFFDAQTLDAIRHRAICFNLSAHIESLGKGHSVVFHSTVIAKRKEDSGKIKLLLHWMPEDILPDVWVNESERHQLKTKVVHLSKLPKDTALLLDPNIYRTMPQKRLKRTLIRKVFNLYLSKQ
T1 sequence (Q15910 whole entry): as the sequence (Q15910 whole entry Y641N) above, with N641Y counted along it
T1 sequence (O75530 whole entry partner): as the sequence (O75530 whole entry partner) above
T1 sequence (Q15022 whole entry partner): as the sequence (Q15022 whole entry partner) above
T1 sequence (Q09028 whole entry partner): as the sequence (Q09028 whole entry partner) above
T1 sequence (Q6ZN18 whole entry partner): as the sequence (Q6ZN18 whole entry partner) above

Papp A→B at 2 h, 2 µM (in vitro): 1.18 ×10⁻⁶ cm/s
Papp B→A at 2 h, 2 µM (in vitro): 28.1 ×10⁻⁶ cm/s
Molecule: CCN(c1cc(-c2ccc(CN3CCOCC3)cc2)cc(C(=O)NCc2c(C)cc(C)[nH]c2=O)c1C)C1CCOCC1 [Compound 2, Tazemetostat]
AUC (a.u.) [1]: 79.9 a.u.

Molecule: CCN(c1cc(-c2ccc(CN3CCOCC3)cc2)cc(C(=O)NCc2c(C)cc(C)[nH]c2=O)c1C)C1CCOCC1 [Compound 3, Tazemetostat]
AUC (a.u.) [1]: 93.5 a.u.

Molecule: CCS(=O)(=O)N1CCC([C@@H](C)n2c(C)c(C(=O)NCc3c(OC)cc(C)[nH]c3=O)c3ccccc32)CC1 [Compound 10, CPI-169]
IC50 (KARPAS-422 cells): 860 nM
Papp A→B at 2 h, 2 µM (in vitro): 0.041 ×10⁻⁶ cm/s
Papp B→A at 2 h, 2 µM (in vitro): 14.7 ×10⁻⁶ cm/s
AUC (a.u.) [1]: 39.5 a.u.
IC50 ([1]; MDA-MB-231, H3K27 methylation HCA, incubation time 0.5 h, washout time 71.5 h, read-out: Mean IC50): > 1.2e-05 M
IC50 ([1]; MDA-MB-231, H3K27 methylation HCA, incubation time 2 h, washout time 70 h, read-out: Mean IC50): > 1.2e-05 M
IC50 ([1]; MDA-MB-231, H3K27 methylation HCA, incubation time 4 h, washout time 68 h, read-out: Mean IC50): > 1.2e-05 M
IC50 ([1]; MDA-MB-231, H3K27 methylation HCA, incubation time 24 h, washout time 48 h, read-out: Mean IC50): > 1.2e-05 M
IC50 ([1]; MDA-MB-231, H3K27 methylation HCA, incubation time 48 h, washout time 24 h, read-out: Mean IC50): 3.1e-06 M

Molecule: Cc1cc(C)c(CNC(=O)c2cc(Cl)c3c(c2C)O[C@@](C)([C@H]2CC[C@H](N(C)C)CC2)O3)c(=O)[nH]1 [Compound 31, DS-3201]
Papp A→B at 2 h, 2 µM (in vitro): 0.599 ×10⁻⁶ cm/s
Papp B→A at 2 h, 2 µM (in vitro): 20.9 ×10⁻⁶ cm/s
AUC (a.u.) [1]: 173.5 a.u.
IC50 ([1]; MDA-MB-231, read-out: Mean IC50 (M), H3K27 methylation HCA, incubation time 0.5 h, washout time 71.5 h): 6.9e-07 M
IC50 ([1]; MDA-MB-231, read-out: Mean IC50 (M), H3K27 methylation HCA, incubation time 1 h, washout time 71 h): 2.3e-07 M
IC50 ([1]; MDA-MB-231, read-out: Mean IC50 (M), H3K27 methylation HCA, incubation time 24 h, washout time 48 h): 1.2e-07 M
IC50 ([1]; MDA-MB-231, read-out: Mean IC50 (M), H3K27 methylation HCA, incubation time 48 h, washout time 24 h): 3.9e-08 M
IC50 ([1]; MDA-MB-231, read-out: Mean IC50 (M), H3K27 methylation HCA, incubation time 72 h, washout time 0 h): 3.4e-09 M

Kd (PRC2/EZH2+/+ [2]; with AP, 25 °C): 0.65 nM and 0.653 nM
koff (PRC2/EZH2+/+ [2]; with AP, 25 °C): 0.00073 s⁻¹
kon (PRC2/EZH2+/+ [2]; with AP, 25 °C): 1.2e+06 M⁻¹ s⁻¹
Kinetic koff (PRC2/EZH2+/+ [2]; with AP, 25 °C): 0.000728 s⁻¹
Kinetic kon (PRC2/EZH2+/+ [2]; with AP, 25 °C): 1.16e+06 M⁻¹ s⁻¹
Kd (PRC2/EZH2+/+ [2]; without AP, 5 °C): 1.16 nM
koff (PRC2/EZH2+/+ [2]; without AP, 5 °C): 0.000177 s⁻¹
kon (PRC2/EZH2+/+ [2]; without AP, 5 °C): 152000 M⁻¹ s⁻¹
Kd (PRC2/EZH2+/+ [2]; without AP, 15 °C): 0.53 nM
koff (PRC2/EZH2+/+ [2]; without AP, 15 °C): 0.000505 s⁻¹
kon (PRC2/EZH2+/+ [2]; without AP, 15 °C): 953000 M⁻¹ s⁻¹
Kd (PRC2/EZH2+/+ [2]; without AP, 25 °C): 1.4 nM and 1.43 nM
koff (PRC2/EZH2+/+ [2]; without AP, 25 °C): 0.0027 s⁻¹
kon (PRC2/EZH2+/+ [2]; without AP, 25 °C): 2e+06 M⁻¹ s⁻¹
Kinetic koff (PRC2/EZH2+/+ [2]; without AP, 25 °C): 0.00273 s⁻¹
Kinetic kon (PRC2/EZH2+/+ [2]; without AP, 25 °C): 1.96e+06 M⁻¹ s⁻¹
Kd (PRC2/EZH2+/+ [2]; without AP, 30 °C): 5.98 nM
koff (PRC2/EZH2+/+ [2]; without AP, 30 °C): 0.0051 s⁻¹
kon (PRC2/EZH2+/+ [2]; without AP, 30 °C): 853000 M⁻¹ s⁻¹
Kd (PRC2/EZH2+/+ [2]; without AP, 37 °C): 3.71 nM
koff (PRC2/EZH2+/+ [2]; without AP, 37 °C): 0.00823 s⁻¹
kon (PRC2/EZH2+/+ [2]; without AP, 37 °C): 2.22e+06 M⁻¹ s⁻¹
Kd (PRC2/EZH2Y641N [3]; with AP): 3.8 nM and 3.76 nM
koff (PRC2/EZH2Y641N [3]; with AP): 0.0035 s⁻¹
kon (PRC2/EZH2Y641N [3]; with AP): 1e+06 M⁻¹ s⁻¹
Kinetic koff (PRC2/EZH2Y641N [3]; with AP): 0.00345 s⁻¹
Kinetic kon (PRC2/EZH2Y641N [3]; with AP): 1.01e+06 M⁻¹ s⁻¹
Kd (PRC2/EZH2Y641N [3]; without AP): 27 nM
koff (PRC2/EZH2Y641N [3]; without AP): 0.018 s⁻¹
kon (PRC2/EZH2Y641N [3]; without AP): 680000 M⁻¹ s⁻¹
Kinetic koff (PRC2/EZH2Y641N [3]; without AP): 0.0177 s⁻¹
Kinetic kon (PRC2/EZH2Y641N [3]; without AP): 679000 M⁻¹ s⁻¹
Kd (PRC2/EZH2Y641N [4]; with H3K27me3 (AP)): 2.7 nM and 2.72 nM
Kd (PRC2/EZH2Y641N [4]; without H3K27me3 (AP)): 9.56 nM
Kd (PRC2/EZH2+/+ [5]; EZH2+/+, with H3K27me3 (AP), 25 °C, read-out: Equilibrium KD): 0.39 nM and 0.393 nM
Kd (PRC2/EZH2+/+ [5]; EZH2+/+, without H3K27me3 (AP), 25 °C, read-out: Equilibrium KD): 1.13 nM
Kd (PRC2/EZH2+/+ [5]; wild type EZH2, absence of H3K27me3 peptide, read-out: affinity in equilibrium conditions): 1.1 ± 0.2 nM
Kd (PRC2/EZH2+/+ [5]; wild type EZH2, saturating concentrations of H3K27me3 peptide, read-out: affinity in equilibrium conditions): 0.4 ± 0.01 nM
Molecule: CCCc1cc(C)[nH]c(=O)c1CNC(=O)c1cc(-c2ccc(N3CCN(CCCCCCNC(=O)CCCCCN4\C(=C/C=C/C=C/C5=[N+](CCOC)c6ccc(S(=O)(=O)O)cc6C5(C)C)C(C)(C)c5cc(S(=O)(=O)O)ccc54)CC3)nc2)cc2c1cnn2C(C)C.O=C(O)C(F)(F)F.O=C([O-])C(F)(F)F [fluorescent probe, 2-[(1E,3E)-5-[(2Z)-3,3-dimethyl-1-{5-[(6-{4-[5-(4-{[(6-methyl-2-oxo-4-propyl-1,2-dihydropyridin-3-yl)methyl]carbamoyl}-1-(propan-2-yl)-1H-indazol-6-yl)pyridin-2-yl]piperazin-1-yl}hexyl)carbamoyl]pentyl}-5-sulfo-2,3-dihydro-1H-indol-2-ylidene]penta-1,3-dien-1-yl]-1-(2-methoxyethyl)-3,3-dimethyl-5-sulfo-3H-indol-1-ium trifluoroacetic acid trifluoroacetate]

Molecule: UNC2239
IC50 (EZH2): 20 nM
